Experimental data from US20120157494A1, “ISOINDOLYL COMPOUNDS” (priority 2010, published 2012).

What was measured:
hP2X7 = target: T1, hP2X7 (Homo sapiens, UniProt Q99572); assay: Intracellular Calcium Flux (FLIPR) Assay; assay type: cell-based; conditions: 1321N1 cells stably expressing human P2X7; agonist 100 μM BzATP; 20 min equilibration with antagonist; read-out: FLIPR pIC50 hP2X7-1321n1 (converted)
T1 construct: 1321N1 cells stably expressing the full length human P2X7 gene (1321N1-hP2X7); expressed in transfected cells
T1 sequence (Q99572 1-595): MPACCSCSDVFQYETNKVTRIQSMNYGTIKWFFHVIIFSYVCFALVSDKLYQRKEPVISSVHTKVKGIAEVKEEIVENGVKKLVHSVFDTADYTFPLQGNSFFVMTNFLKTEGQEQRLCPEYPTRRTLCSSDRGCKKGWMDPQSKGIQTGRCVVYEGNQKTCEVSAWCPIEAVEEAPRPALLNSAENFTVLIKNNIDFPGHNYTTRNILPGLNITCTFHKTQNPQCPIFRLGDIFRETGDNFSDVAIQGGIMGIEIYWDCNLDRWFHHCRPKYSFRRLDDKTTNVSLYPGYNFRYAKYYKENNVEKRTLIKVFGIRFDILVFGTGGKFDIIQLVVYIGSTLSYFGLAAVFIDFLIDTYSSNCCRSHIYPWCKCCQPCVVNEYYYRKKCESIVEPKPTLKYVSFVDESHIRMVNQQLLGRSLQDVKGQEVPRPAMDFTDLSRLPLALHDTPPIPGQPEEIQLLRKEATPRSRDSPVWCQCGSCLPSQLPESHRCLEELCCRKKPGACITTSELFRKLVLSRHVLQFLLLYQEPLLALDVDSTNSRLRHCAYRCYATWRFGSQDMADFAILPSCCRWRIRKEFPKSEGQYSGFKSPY
Method: Stock solutions of compounds were prepared from powders as a 10 mM DMSO stock solution. These solutions were stored at RT during the two week period of these experiments to prevent freeze-thaw of the DMSO stocks. The DMSO stocks were added to the appropriate assay buffer at a concentration of 10 μM, and then diluted serially to the final concentrations that were tested. No observable precipitate was formed at any time during this process. The aqueous solutions of compounds as well as ATP (Sigma A7699) and BzATP (Sigma B6396) were prepared fresh for each day of experiment.
1321N1 cells stably expressing the full length human P2X7 gene (1321N1-hP2X7) and HEK293 cells stably expressing the full length rat P2X7 gene (HEK293-rP2X7) were obtained from the Roche Cell Culture Facility. 1321N1-hP2X7 cells were grown in Dulbecco's Modified Eagle's Medium (DMEM) high glucose supplemented with 10% FBS and 250 μg/mL G418. HEK293-rP2X7 cells were grown in DMEM/F-12 supplemented with 10% FBS, 1 mM CaCl2, 2 mM MgCl2, 2 mM L-Glutamine and 500 μg/ml G418. Cells were split such that they never became >70% confluent.
On the day prior to the experiment, 1321N1-hP2X7 or HEK293-rP2X7 cells were released into suspension with calcium-free PBS+Versene and washed by centrifugation with calcium-free PBS to remove the Versene. Cells were resuspended in growth medium at a density of 2.5×10^5 cells/mL and seeded into black walled, clear bottom 96 well plates (50,000 cells/well) approximately 18 hr prior to intracellular calcium flux experiments.
On the day of the experiment, plates were washed with FLIPR buffer (calcium- and magnesium-free Hank's Balanced Salt Solution (HBSS) supplemented with 10 mM Hepes, 2.5 mM probenecid and 2 mM calcium chloride) using a BIO-TEK 96 channel plate washer and incubated with […] fluo-3 dye at 37° C. for one hr. The dye was then removed by plate washing and the cells were allowed to equilibrate for 20 min at room temperature with antagonist or vehicle (FLIPR buffer). Agonist (100 μM BzATP final concentration for hP2X7; 5 μM BzATP final concentration or rP2X7) was added online with the FLIPR and fluorescence measurements made at 1 sec intervals for 60 sec followed by 3 sec intervals for a further 4 min (5 min total). A final addition of 5 μM ionomycin was made and the maximal BzATP-evoked fluorescence normalized to the maximal ionomycin-evoked fluorescence.

SMILES: COCC(C)N1Cc2c(NC(=O)Cc3ccc(F)c(C(F)(F)F)c3)cccc2C1=O (centres unmarked) [Compound I-19, 2-(4-Fluoro-3-trifluoromethyl-phenyl)-N-[2-(2-methoxy-1-methyl-ethyl)-1-oxo-2,3-dihydro-1H-isoindol-4-yl]-acetamide]
- IC50 (hP2X7): 331 nM
- melting point: 151 to 152 °C
